Results on 27 compounds are retold here after patent publication US20240083839A1, “COMPOSITIONS AND METHODS FOR TREATING NEURODEGENERATIVE DISEASES AND DISORDERS” (The Regents of the University of California, priority 2020, published 2024).

Data set [1] concerns SirT1 levels in N2a-E4 cells. Kind of data set: SirT1 levels by AlphaLISA in ApoE4-transfected N2a cells. Type of data set: cell-based, murine. The protocol:
Prompted by the emerging importance of the associations between ApoE4 and the expression/protein levels of SirT1, high-throughput screening (HTS) of the UCLA compound library was performed using AlphaLISA to detect SirT1 levels in murine neuroblastoma cells stably transfected with ApoE4 (E4-N2a) to identify SirT1 enhancers. […] In the in vivo study, mice were treated orally at 40 mkd (20 mg/kg BID) for 56 days and underwent assessment of cognition in the Novel Object Recognition (NOR) testing paradigm. […] The performance of A03-treated E4-AD mice (FIG. 5A) improved to level of non-transgenic vehicle-treated mice.
For orientation: In Alpha technology, singlet oxygen from a donor bead excites a nearby acceptor bead.

Values joined by “and” are separate entries in the source; they are usually repeats but may differ in a detail not shown here. Equal entries are not always repeated. Structures can show the parent of a compound that is named as a salt. Where two headings read alike, the source gives them in different places.

As to `C[C@H](N)C(=O)NC(C)(C)Cc1cccc(C(F)(F)F)c1` [MP-39, (S)-2-amino-N-(2-methyl-1-(3-(trifluoromethyl)phenyl)propan-2-yl)propanamide], in data set [1], the “SirT1 SOμM” value is “A, A (A >20%)” and the “SirT1 SμM” value is on record as “A, A (A >20%)”. Further, the PAMPA in “PAMPA” is given as 1.7.

Consider `C[C@@H](N)C(=O)NC(C)(C)Cc1cccc(C(F)(F)F)c1` [MP-40, (R)-2-amino-N-(2-methyl-1-(3-(trifluoromethyl)phenyl)propan-2-yl)propanamide], for which, in data set [1], the “SirT1 SOμM” value is given as “A, A (A >20%)” and the “SirT1 SμM” value is listed as “A, A (A >20%)”. In addition, in “PAMPA”, the PAMPA came out at 1.78.

As for `C[C@H](N)C(=O)OC(C)(C)Cc1ccc(Cl)cc1` [MP-41, 1-(4-chlorophenyl)-2-methylpropan-2-yl L-alaninate], in data set [1], the “SirT1 SOμM” value is “A, A (A >20%)” and the “SirT1 SμM” value was “A, A (A >20%)”. Also, in “PAMPA” (PAMPA), the PAMPA is recorded as 3.88.

Regarding `C[C@@H](N)C(=O)OC(C)(C)Cc1ccc(Cl)cc1` [MP-42, 1-(4-chlorophenyl)-2-methylpropan-2-yl D-alaninate], in data set [1], the “SirT1 SOμM” value is on record as “a, a (a <250%)” and the “SirT1 SμM” value is “a, a (a <250%)”. The compound further registered a PAMPA in “PAMPA” (PAMPA) of 3.9.

For the compound `C[C@H](N)C(=O)NC(C)(C)Cc1cc(F)cc(F)c1` [MP-43, (S)-2-amino-N-(1-(3,5-difluorophenyl)-2-methylpropan-2-yl)propanamide], in data set [1], the “SirT1 SOμM” value is recorded as “A, A (A >20%)” and the “SirT1 SμM” value is “A, A (A >20%)”. The compound also yielded a PAMPA in the data set “PAMPA” of 1.59.

In the case of `C[C@@H](N)C(=O)NC(C)(C)Cc1cc(F)cc(F)c1` [MP-44, (R)-2-amino-N-(1-(3,5-difluorophenyl)-2-methylpropan-2-yl)propanamide], in data set [1], the “SirT1 SOμM” value is reported as “A (A >20%)” and the “SirT1 SμM” value is listed as “a (a <250%)”. In the data set “PAMPA”, this compound displayed a PAMPA of 1.57.

As for `C[C@H](N)C(=O)NC(C)(C)Cc1ccc(Br)cc1` [MP-47, (S)-2-amino-N-(1-(4-bromophenyl)-2-methylpropan-2-yl)propanamide], in data set [1], the “SirT1 SOμM” value is given as “A (A >20%)” and the “SirT1 SμM” value is reported as “B (B >50%)”. For the same compound, the PAMPA in “PAMPA” is 1.76.

For `C[C@H](N)C(=O)OC(C)(C)Cc1ccncc1` [MP-48, 2-methyl-1-(pyridin-4-yl)propan-2-yl alaninate], in data set [1], the “SirT1 SOμM” value is “B (B >50%)” and the “SirT1 SμM” value is given as “A (A >20%)”. The PAMPA in “PAMPA” is given as 0.4.

As to `C#Cc1ccc(CC(C)(C)OC(=O)[C@H](C)N)cc1` [MP-50, 1-(4-ethynylphenyl)-2-methylpropan-2-yl alaninate], in data set [1], the “SirT1 SOμM” value is “B (B >50%)” and the “SirT1 SμM” value is given as “A (A >20%)”. In “PAMPA”, this compound displayed a PAMPA of 3.36.

On to `C[C@H](N)C(=O)NC(C)(Cc1ccc(F)cc1)Cc1ccc(F)cc1` [MP-51, (S)-2-amino-N-(1,3-bis(4-fluorophenyl)-2-methylpropan-2-yl)propanamide], for which, in data set [1], the “SirT1 SOμM” value was “C (C = 100% increase versus control)” and the “SirT1 SμM” value is given as “A (A >20%)”. Also, the PAMPA in the data set “PAMPA” was 2.25 and 2.38.

Take `C[C@@H](N)C(=O)NC(C)(Cc1ccc(F)cc1)Cc1ccc(F)cc1` [MP-52, (R)-2-amino-N-(1,3-bis(4-fluorophenyl)-2-methylpropan-2-yl)propanamide]: in data set [1], the “SirT1 SOμM” value is “A, A (A >20%)” and the “SirT1 SμM” value is “A, A (A >20%)”. Also, the PAMPA in “PAMPA” is on record as 1.

For the compound `CC(=O)c1ccc(CC(C)(C)NC(=O)[C@H](C)N)cc1` [MP-53, (S)—N-(1-(4-acetylphenyl)-2-methylpropan-2-yl)-2-aminopropanamide], in data set [1], the “SirT1 SOμM” value is given as “B (B >50%)” and the “SirT1 SμM” value was “A (A >20%)”. For the same compound, in “PAMPA”, the PAMPA is listed as 0.49.

`C[C@H](N)C(=O)Nc1ccc2ccccc2c1` [MP-55, (S)-2-amino-N-(naphthalen-2-yl)propanamide]: in data set [1], the “SirT1 SOμM” value is reported as “B (B >50%)” and the “SirT1 SμM” value is “A (A >20%)”. For the same compound, in “PAMPA”, the PAMPA was determined as 5.06.

Consider `C[C@H](N)C(=O)NC1Cc2ccccc2C1` [MP-56, (S)-2-amino-N-(2,3-dihydro-1H-inden-2-yl)propanamide], for which, in data set [1], the “SirT1 SOμM” value was “C (C = 100% increase versus control)” and the “SirT1 SμM” value is “A (A >20%)”. Further, the PAMPA in the data set “PAMPA” is 1.81.

`C[C@H](N)C(=O)Nc1ccccc1-c1ccc(F)cc1` [MP-57, (S)-2-amino-N-(4′-fluoro-[1,1′-biphenyl]-2-yl)propanamide]: in data set [1], the “SirT1 SOμM” value was “B (B >50%)” and the “SirT1 SμM” value is “A (A >20%)”. In “PAMPA”, the PAMPA is given as 1.6(2).

With `C[C@H](N)C(=O)NC(C)(C)Cc1ccc(CC(F)(F)F)cc1` [MP-58, (S)-2-amino-N-(2-methyl-1-(4-(2,2,2-trifluoroethyl)phenyl)propan-2-yl)propanamide], in data set [1], the “SirT1 SOμM” value was “C (C = 100% increase versus control)” and the “SirT1 SμM” value is recorded as “A (A >20%)”. In the data set “PAMPA”, this compound gave a PAMPA of 1.28.

Consider `C#Cc1ccc(CC(C)(C)NC(=O)[C@H](C)N)cc1` [MP-59, (S)-2-amino-N-(1-(4-ethynylphenyl)-2-methylpropan-2-yl)propanamide], for which, in data set [1], the “SirT1 SOμM” value is “A, A (A >20%)” and the “SirT1 SμM” value was “A, A (A >20%)”. For the same compound, in the data set “PAMPA”, the PAMPA is 2.49.

For the compound `CC(C)(Cc1ccc(Br)cc1)NC(=O)[C@@H](N)CCC(=O)O` [MP-61, (S)-4-amino-5-((1-(4-bromophenyl)-2-methylpropan-2-yl)amino)-5-oxopentanoic acid], in data set [1], the “SirT1 SOμM” value is on record as “B (B >50%)” and the “SirT1 SμM” value is listed as “A (A >20%)”. Besides, the PAMPA in “PAMPA” was found to be 0.29.

For the compound `C#CC[C@H](N)C(=O)NC(C)(C)Cc1ccc(Br)cc1` [MP-62, (S)-2-amino-N-(1-(4-bromophenyl)-2-methylpropan-2-yl)pent-4-ynamide], in data set [1], the “SirT1 SOμM” value is reported as “B (B >50%)” and the “SirT1 SμM” value is “A (A >20%)”. In addition, the PAMPA in the data set “PAMPA” is on record as 1.67.

As to `COC(=O)N[C@H]1Cc2ccccc2CNC1=O` [MP-70], in data set [1], the “SirT1 SOμM” value is listed as “A, A (A >20%)” and the “SirT1 SμM” value is given as “A, A (A >20%)”. The same compound showed a PAMPA in the data set “PAMPA” of 0.59.

Consider `O=C1NCN[C@H]1Cc1ccc(Cl)cc1` [MP-72, (S)-5-(4-chlorobenzyl)imidazolidin-4-one], for which, in data set [1], the “SirT1 SOμM” value is “A, A (A >20%)” and the “SirT1 SμM” value is reported as “A, A (A >20%)”. In addition, the PAMPA in the data set “PAMPA” is 11.07(2).

For the compound `O=C(N[C@H]1Cc2ccccc2CNC1=O)OCc1ccccc1` [MP-73, (S)-benzyl (3-oxo-2,3,4,5-tetrahydro-1H-benzo[c]azepin-4-yl)carbamate], in data set [1], the “SirT1 SOμM” value is “a, a (a <250%)” and the “SirT1 SμM” value is listed as “a, a (a <250%)”. The compound also returned a PAMPA in the data set “PAMPA” of 0.68.

Regarding `O=C(N[C@H]1Cc2ccccc2CNC1=O)OCC1c2ccccc2-c2ccccc21` [MP-74, (S)-(9H-fluoren-9-yl)methyl (3-oxo-2,3,4,5-tetrahydro-1H-benzo[c]azepin-4-yl)carbamate], in data set [1], the “SirT1 SOμM” value is “a, a (a <250%)” and the “SirT1 SμM” value is reported as “a, a (a <250%)”. This compound also returned a PAMPA in “PAMPA” of 1.55.

Regarding `CC(N)C(=O)OC(C)(C)Cc1ccc(C(F)(F)F)cc1.Cl` (stereo not drawn) [MP-76, 2-methyl-1-(4-(trifluoromethyl)phenyl)propan-2-yl 2-aminopropanoate hydrochloride], in data set [1], the “SirT1 SOμM” value is reported as “A, A (A >20%)” and the “SirT1 SμM” value was “A, A (A >20%)”. The PAMPA in “PAMPA” worked out at 2.71.

For `C[C@H](NC(=O)OC(C)(C)C)C(=O)NC(C)(C)Cc1ccc(C(F)(F)F)cc1` [MP-77, (S)-tert-butyl (1-((2-methyl-1-(4-(trifluoromethyl)phenyl)propan-2-yl)amino)-1-oxopropan-2-yl)carbamate], in data set [1], the “SirT1 SOμM” value was “a, a (a <250%)” and the “SirT1 SμM” value was “a, a (a <250%)”. Besides, in the data set “PAMPA”, the PAMPA is on record as 1.61.

For `C[C@H](N)C(=O)NC(C)(C)Cc1ccc(C(F)(F)F)cc1` [MP-78, (S)-2-amino-N-(2-methyl-1-(4-(trifluoromethyl)phenyl)propan-2-yl)propanamide hydrochloride], in data set [1], the “SirT1 SOμM” value is “B (B >50%)” and the “SirT1 SμM” value was “A (A >20%)”. Also, in “PAMPA”, the PAMPA stood at 1.93.

Take `CC(C)(N)C(=O)NCCc1ccc(Cl)cc1` [MP-79, 2-amino-N-(4-chlorophenethyl)-2-methylpropanamide]: in data set [1], the “SirT1 SOμM” value is on record as “B (B >50%)” and the “SirT1 SμM” value is “A (A >20%)”. This compound also returned a PAMPA in “PAMPA” of 1.74.
